Series [1] concerns HCT116 (human colon cancer ATCC CCl-247). The series can be described thus: MTT cytotoxicity assay, HCT116 cell line. It is filed as cell-based. As to conditions: HCT116 cells, read-out: HCT116 cell line (Colon cancer) IC50 ± SD. As to the method:
(§1) The cytotoxicity of samples was measured against HeLa (human cervical carcinoma ATCC CCl-2), PC-3 (human prostate cancer ATCC CRL-1435), NCl-H460 (human lung carcinoma ATCC HTB-177), HCT116 (human colon cancer ATCC CCl-247), and 3T3 (control fibroblast normal ATCC CRL-1658) cell lines by using standard MTT assay. Cell lines were grown in DMEM F12 media, supplemented with 10% FBS under a 5% CO2 atmosphere at 37°C in an incubator.
(§2) The colorimetric assay MTT [3-(4, 5-dimethyl thiazol-2yl)-2, 5-diphenyl tetrazolium bromide] was used for the evaluation of cell metabolic activity. In this assay, the yellow MTT is reduced to purple formazon in the mitochondria of the living cells (Gerlier and Thomasset, [1986]). The more the living cells, the more the color and thus more absorbance is observed by colorimeter (Fesahat et al., [2015]). We have used this method to analyze the effect of our transformed products on cellular cytotoxicity against cancer cells. Around 10,000 cells of each cell line (HeLa, PC3, H460, HCT116 cancers, and 3T3 normal) were seeded in 96-well plates. After reaching 80–90% confluency, they were treated with various concentrations of compounds (25, 50, 75, 100, and 200 μM) for 24 h. All compounds were dissolved in sterile DMSO to make a 200 mM stock solution. The solution was filtered, and serial dilutions were made in growth medium. 600 μL of each dilution was used to treat 3 wells (triplicate of each) of 96 well plate i.e., 200 μL each. Each experiment was performed in three biological replicates. MTT was added, and incubated for 4 h. […] The Multiskan reader gives λmax at 540 nm in DMSO treated 3T3 fibroblast cells (that are more confluent in morphology) whereas in case of cancer cells, 570 nm gives λmax (Bonmati-Carrion et al., [2013]; Danihelová et al., [2013]). A broad range of epithelial carcinoma cell lines were used in this experiment where cisplatin was a common drug of choice. It targets DNA, interferes with cell division during mitosis and induces apoptosis (Eastman, [1999]). IC50 values were calculated to determine the minimum concentration required to kill 50% of the cells.
(§3) % Inhibition=100-(At-Ab)/(Ac-Ab) ×100% Cell survival=(At-Ab)/(Ac-Ab) ×100

For series [2], the system named is HeLa (human cervical carcinoma ATCC CCl-2). Description: MTT cytotoxicity assay, HeLa cell line. It is filed as cell-based. The following applies: 24 h treatment, HeLa cells, read-out: HeLa cell line (Cervical cancer) IC50 ± SD. On the procedure: as §1, §2, §3
Series [3] concerns NCl-H460 (human lung carcinoma ATCC HTB-177). Description: MTT cytotoxicity assay, H460 cell line. The class given is cell-based. The following applies: H460 cells, read-out: H460 cell line (Lung cancer) IC50 ± SD. On the procedure: as §1, §2, §3
For series [4], the system named is 3T3 (control fibroblast normal ATCC CRL-1658). The series can be described thus: MTT cytotoxicity assay, 3T3 normal cell line. The following applies: 3T3 normal cells, read-out: 3T3 cell line (Mouse fibroblast) IC50 ± SD. It is filed as cell-based. As to the method:
as §1, §2, §3

The subject of series [5] is PC-3 (human prostate cancer ATCC CRL-1435). Description: MTT cytotoxicity assay, PC-3 cell line. It is filed as cell-based. The following applies: 24 h treatment, PC3 cells, read-out: PC3 cell line (Prostate cancer) IC50 ± SD. On the procedure: as §1, §2, §3
The mark [6] stands for this setting: Homo sapiens, HCT-116, 24 h treatment.
The mark [7] stands for this setting: Homo sapiens, NCI-H460, 24 h treatment.
[8] abbreviates: Mus musculus, NIH3T3, 24 h treatment.

Where two headings read alike, the source gives them in different places. Where only a bound is given, the exact number is not on record here.

As for `CCCCCCC(=O)OC1CCC2C3CCC4CC(=O)C(C)CC4(C)C3CCC12C` (centres unmarked) [Compound 1, drostanolone enanthate], the IC50 in series [1] (setting [6]) is 3.1 ± 3.2 µM; in series [2] (Homo sapiens), 54.7 ± 1.6 µM; in series [3] (setting [7]) it was 5 ± 1.2 µM; in series [4] (setting [8]), greater than 150 µM; in series [5] (Homo sapiens, PC-3, 24 h) it was 96.2 ± 3 µM.

On to `C[C@@H]1C[C@@]2(C)[C@@H](CC[C@@H]3[C@@H]2CC[C@]2(C)[C@@H](O)CC[C@@]32O)C[C@@H]1O` [Compound 2, 2α-methyl-3α,14α,17β-trihydroxy-5α-androstane], for which the concentration for half-maximal inhibition (IC50) in series [1] (setting [6]) is 39.4 ± 2 µM; in series [2] (Homo sapiens), 64.3 ± 3 µM; in series [3] (setting [7]), 44.4 ± 2 µM; in series [4] (setting [8]), greater than 150 µM; in series [5] (Homo sapiens, PC-3, 24 h), 84.6 ± 6.4 µM.

The compound `C[C@@H]1C[C@@]2(C)[C@H](CC1=O)C[C@@H](O)[C@@H]1[C@@H]2CC[C@]2(C)C(=O)CC[C@@H]12` [Compound 3, 2α-methyl-7α-hydroxy-5α-androstan-3,17-dione] showed a melting point of 230 to 234 °C. The 50% inhibitory concentration (IC50) in series [1] (setting [6]) stood at 42.8 ± 1.2 µM. For the same compound, the half-inhibitory concentration (IC50) in series [2] (Homo sapiens) came out at 58 ± 1 µM. Further, the half-inhibitory concentration (IC50) in series [3] (setting [7]) is 16.7 ± 2.6 µM. Further, the IC50 in series [4] (setting [8]) is greater than 150 µM. Besides, the IC50 in series [5] was determined as 68.1 ± 1.2 µM. For the same compound, the concentration for half-maximal inhibition (IC50) in series [5] (Homo sapiens, PC-3, 24 h) was found to be 68 ± 1.2 µM.

`C[C@@H]1C[C@@]2(C)[C@@H](CC[C@@H]3[C@@H]2CC[C@]2(C)[C@@H](O)CC[C@@H]32)C[C@@H]1O` [Compound 4, 2α-methyl-3α,17β-dihydroxy-5α-androstane] returned a melting point of 242 to 245 °C. Also, in series [1] (setting [6]), the half-maximal inhibitory concentration (IC50) amounted to 80.9 ± 1.6 µM. Besides, in series [2] (Homo sapiens), the half-maximal inhibitory concentration (IC50) turned out to be 49.5 ± 2.2 µM. Further, the IC50 in series [3] (setting [7]) is 12.4 ± 2.3 µM. Also, in series [4] (setting [8]), the IC50 was greater than 150 µM. The IC50 in series [5] (Homo sapiens, PC-3, 24 h) came out at 60.4 ± 0.9 µM.

As to `CC1=C[C@@]2(C)C(=CC1=O)CC[C@@H]1[C@@H]2CC[C@]2(C)C(=O)CC[C@@H]12` [Compound 5, 2-methylandrosta-1,4-diene-3,17-dione], the melting point fell in the range of 198 to 202 °C. In addition, the concentration for half-maximal inhibition (IC50) in series [1] (setting [6]) is 30.4 ± 1.6 µM. Also, in series [2] (Homo sapiens), the IC50 was 39.8 ± 1.5 µM. The half-inhibitory concentration (IC50) in series [4] (setting [8]) is greater than 150 µM. The concentration for half-maximal inhibition (IC50) in series [5] (Homo sapiens, PC-3, 24 h) came to 84 ± 3.1 µM.

For the compound `CC1=C[C@@]2(C)C(=CC1=O)CC[C@@H]1[C@@H]2[C@H](O)C[C@]2(C)C(=O)CC[C@@H]12` [Compound 6, 2-methylandrosta-11α-hydroxy-1,4-diene-3,17-dione], the melting point was 230 to 234 °C. Further, the IC50 in series [1] (setting [6]) was found to be 45.9 ± 4.2 µM. For the same compound, in series [2] (Homo sapiens), the IC50 was found to be 40.7 ± 0.9 µM. Besides, the concentration for half-maximal inhibition (IC50) in series [3] (setting [7]) was 33.2 ± 1 µM. Also, the 50% inhibitory concentration (IC50) in series [4] (setting [8]) is greater than 150 µM. For the same compound, the IC50 in series [5] (Homo sapiens, PC-3, 24 h) was found to be 58.4 ± 1.6 µM.

Compound `CC1=C[C@@]2(C)C(=CC1=O)CC[C@@H]1[C@@H]2CC[C@]2(C)C(=O)CC[C@@]12O` [Compound 7, 2-methylandrosta-14α-hydroxy-1,4-diene-3,17-dione] gave a melting point of 224 to 228 °C. Further, the IC50 in series [1] (setting [6]) turned out to be 46.6 ± 3 µM. For the same compound, the IC50 in series [2] (Homo sapiens) came to 43.9 ± 2.4 µM. The half-inhibitory concentration (IC50) in series [3] (setting [7]) was 38.5 ± 2.8 µM. Moreover, the IC50 in series [4] (setting [8]) is greater than 150 µM. The IC50 in series [5] (Homo sapiens, PC-3, 24 h) came to 59.1 ± 2.6 µM.

`CC1=C[C@@]2(C)[C@H](CC1=O)C[C@@H](O)[C@@H]1[C@@H]2CC[C@]2(C)C(=O)CC[C@@H]12` [Compound 8, 2-methylandrosta-7α-hydroxy-1-ene-3,17-dione] returned a melting point of 250 to 256 °C. In addition, the IC50 in series [1] (setting [6]) was found to be 55 ± 1.9 µM. The concentration for half-maximal inhibition (IC50) in series [2] (Homo sapiens) was determined as 19.6 ± 1.4 µM. For the same compound, the IC50 in series [3] (setting [7]) stood at 26.4 ± 0.9 µM. In addition, in series [4] (setting [8]), the 50% inhibitory concentration (IC50) amounted to 74.6 ± 3.7 µM. Besides, the half-maximal inhibitory concentration (IC50) in series [5] (Homo sapiens, PC-3, 24 h) was 51.8 ± 3.4 µM.

Turning to `C[C@@H]1C[C@@]2(C)[C@@H](CC[C@@H]3[C@@H]2CC[C@]2(C)[C@@H](O)CC[C@@H]32)CC1=O` [Compound 9, 2α -methyl-5α-androstane-17β-hydroxy-3-one], the IC50 in series [1] (setting [6]) came out at 2.8 ± 0.2 µM; in series [2] (Homo sapiens) it was 25.1 ± 1.6 µM; in series [3] (setting [7]), 31.8 ± 1.2 µM; in series [4] (setting [8]), 62.1 ± 1.2 µM; in series [5] (Homo sapiens, PC-3, 24 h) it was 57.8 ± 3.2 µM.

`N.N.[Cl][Pt][Cl]` [cisplatin, reference compound]: the half-inhibitory concentration (IC50) turned out to be 11.2 ± 3.03 µM in series [1] (24 h treatment); 40.1 ± 2 µM in series [2]; 22.2 ± 2.1 µM in series [3] (24 h treatment); 42.7 ± 0.8 µM in series [4] (24 h treatment); 76.5 ± 1.2 µM in series [5].
